These results are taken from US9504702B2, “Methods of inhibition of protein fucosylation in vivo using fucose analogs” (Seattle Genetics, Inc., priority 2010, dated 2016).

Data set [1] deals with LP-1, a human multiple myeloma cell line (IgG fucosylation). Briefly: Fucosylation of LP-1-generated IgG, AOL dot blot. The data set is classed as cell-based. In outline: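 LP-1 cells (250,000 cells/mL) treated with 100 μM of each analog for 5 days at 37° C in IgG-depleted RPMI/10% FBS. Secreted IgG purified on protein A, ~0.5 μg dot-blotted (Ponceau S loading check) and probed with 5 μg/ml biotinylated AOL, detected with streptavidin-HRP.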

The test system of data set [2] is LP-1 cells (IgG heavy chain fucose signal). Kind of data set: Fucosylation of LP-1 IgG, SDS-PAGE/Western blot with biotinylated AOL. The class given is cell-based, human. The following applies: for AOL signal on IgG heavy chain, SDS-PAGE/Western blot: 50 μM, LP-1 cells, versus untreated cells; for inhibition of fucosylation of antibody (AOL signal): IgG isolated from LP-1 culture. The text has this:
The ability of different fucose analogs to inhibit the fucosylation of IgG antibodies produced by human myeloma cells as well as the fucosylation of surface proteins of human cancer cell lines was investigated. In a first study, the ability of fucose analogs to inhibit fucosylation of IgG produced by the cell line LP-1, a human multiple myeloma cell line, was investigated. The antibodies produced by, and found in the culture medium of, untreated LP-1 cells were confirmed to be of the IgG type by western blot using anti-human IgG detection (data not shown). This was accomplished by growing 20 mL of LP-1 cells in a T-75 culture flask (250,000 cells/mL) for 5 days at 37° C. in a humidified atmosphere of 5% CO2 in IgG-depleted tissue culture media (90% RPMI with 10% IgG-depleted heat inactivated FBS). Harvest of the cells was by centrifugation (200×g, 4° C., 5 min), and the culture medium was collected. The medium was filtered through a 0.22 μm filter and then incubated with 1 mL of a 50% MabSelect™ protein A resin slurry in PBS at 4° C. with rotation overnight to capture the IgG. The resin slurry was allowed to settle and most of the medium was removed. The resin slurry was transferred with ˜0.5 mL media to two cellulose acetate filter spin cups and was centrifuged at 5000×g for 1 min. The resin bed was then washed 3 times with 0.5 mL PBS. The IgG was eluted with 700 μL of Pierce IgG elution buffer (into with 52 μL of 9 M Tris buffer, pH 9.5 to adjust the pH after elution). The resulting elution was transferred to a 10,000 MW cutoff centrifugal concentrator and the sample was concentrated to approximately 20 μL. 1 μL of the concentrated sample was loaded on an SDS polyacrylamide gel for separation followed by blotting onto nitrocellulose membrane. Staining of the blot for total protein was with Ponceau S and for identification of isotype with anti-human IgG antibody.
Antibody fucosylation can also be determined using a biotin-labeled Aspergillus oryzae L-fucose-specific lectin (AOL), which binds specifically to the α-1,6-linked fucose of the antibody. This method for fucose detection works for both blotted protein that has either been separated by SDS-PAGE or for protein that has been applied to nitrocellulose without separation. The […] signal generated using the AOL-biotin conjugate with streptavidin-HRP binding and ECL detection can be quantitated using an Alpha Innotech FlourChem® Q system.
The three analogs chosen were used at a concentration of 50 μM. These analyses compared the activity of 2-fluorofucose (SGD-2083), 2-fluorofucose peracetate (SGD-2084), and alkynyl fucose peracetate (SGD-1890) with antibody from untreated cells.

Data set [3] has as its system antibody core fucosylation (antibodies that did not bind to KLH, recovered from protein A column). Kind of data set: In vivo antibody fucosylation after ip dosing (Example 1, Study 1), AOL lectin dot blot. The following applies: 150 mg/kg ip daily for 7 days; for fucosylation levels of the antibodies reduced, as compared to the untreated controls: non-KLH antibodies from protein A column, dot blot, on average. The protocol: Female BALB/c mice were immunized with Keyhole Limpet Hemocyanin (KLH) 30-60 days prior to starting this study. For the first study, mice were dosed ip with 150 mg/kg of alkynyl fucose (SGD-1887), alkynyl fucose peracetate (SGD-1890), 2-fluorofucose (SGD-2083), or 2-fluorofucose triacetate (SGD-2084) daily for 7 days or were untreated. On day 2, mice were also boosted with KLH. On the day after the last ip dose, mice were terminally bled and serum obtained. For the second study, mice were given 100 mM of 2-fluorofucose (SGD-2083) in their drinking water or given untreated water for 7 days, boosted with KLH, and continued with 100 mM 2-fluorofucose containing drinking water or untreated water for 7 more days before being terminally bled. Serum was then obtained. No mice died in either study. For both studies, serum was passed over a commercial anti-KLH affinity column to obtain KLH-specific polyclonal antibodies. The flow through from the anti-KLH affinity column was passed over a commercial protein A column to obtain the remaining antibodies.
Dot blots: 0.5 μg each of antibodies from untreated and treated animals, as well as standards of antibody cAC10 having known amounts of core fucosylation (0 to 100% fucose), were blotted onto a nitrocellulose membrane. The proteins levels were visualized by Ponceau staining. The blot was probed with biotinylated Aspergillus oryzae L-fucose-specific lectin (AOL) (which binds to fucosylated antibodies) and developed with streptavidin HRP and ECL. Gel loading (visible) and fucose signals (bioluminescence) were measured with an Alpha Innotech camera and quantitated with the machine software.

On to `C#CC(OC(C)=O)[C@@H](OC(C)=O)[C@@H](OC(C)=O)[C@@H](C=O)OC(C)=O` (stereo partly shown) [SGD-1890, 5-ethynylarabinose tetraacetate], for which the “inhibition of IgG fucosylation in human cells (decrease in AOL signal, dot blot)” value in data set [1] (100 μM, LP-1 cells) was “potentially strong inhibitors”. For the same molecule, the “dot blot results (% fucose signal of control)” value in data set [1] (LP-1-generated IgG, 100 μM) is listed as ~1 % fucose signal of control. Besides, in data set [2], the “AOL signal on IgG heavy chain, SDS-PAGE/Western blot” value was “did not show reactivity with the biotinylated AOL” and the “inhibition of fucosylation of antibody (AOL signal)” value is “did”. Besides, in data set [3], the mortality entry was “No mice died” and the “fucosylation levels of the antibodies reduced, as compared to the untreated controls” value is “about one third”.

For `C[C@H](O)[C@@H](O)[C@@H](O)[C@H](F)C=O` [SGD-2083, 2-fluoro-2-deoxy fucose], the activity at 100 µM in data set [1] (Homo sapiens, LP-1, 120 h, 5 days, LP-1 cells, AOL dot blot, multiple samples separated by semicolon, read-out: % of control fucosylated IgG value) amounted to 66%. Further, in data set [2], the “AOL signal on IgG heavy chain, SDS-PAGE/Western blot” value was “no apparent change in the AOL signal” and the “inhibition of fucosylation of antibody (AOL signal)” value is on record as “did not inhibit fucosylation of antibody”. For the same molecule, the “fucosylation levels of the antibodies reduced, as compared to the untreated controls” value in data set [3] is “about one third”.
